Earlier results in US20110274624A1, “CONTRAST AGENTS IN POROUS PARTICLES” (WILLIAM MARSH RICE UNIVERSITY, priority 2010, published 2011).
Read-outs that look alike come from different tables or passages of the source.

SMILES	r1 per Gd^3+ ion (1.41T)	r1 per Gd^3+ ion (1.5T)	longitudinal relaxivity r1 (field not stated)
O=C([O-])CN(CCN(CC(=O)[O-])CC(=O)[O-])CCN(CC(=O)[O-])CC(=O)[O-].[Gd+3] [MAG, Gd-DTPA]	3.4 (1.41T) mM^−1s^−1	~4 mM⁻¹ s⁻¹	–
O=C([O-])CN(CCN(CC(=O)[O-])CC(=O)[O-])CCN(CC(=O)[O-])C(COCc1ccccc1)C(=O)[O-].[Gd+3] (stereo not shown) [Gd-BOPTA]	4.1 (1. 41T) mM^−1s^−1	–	–
CNC(=O)CN(CCN(CCN(CC(=O)[O-])CC(=O)NC)CC(=O)[O-])CC(=O)[O-].[Gd+3] [Gd-DTPA-BMA]	3.6 (1. 41T) mM^−1s^−1	–	–
[Gd+3] [Gd^3+ ion]	–	–	~8 mM⁻¹ s⁻¹
O=C([O-])CN1CCN(CC(=O)[O-])CCN(CC(=O)[O-])CCN(CC(=O)[O-])CC1.[Gd+3] [Gd-DOTA]	3.1 (1.41T) mM^−1s^−1	–	–
CC(O)CN1CCN(CC(=O)[O-])CCN(CC(=O)[O-])CCN(CC(=O)[O-])CC1.[Gd+3] (stereo not shown) [Gd-HP-DO3A]	3.2 (1. 41T) mM^−1s^−1	–	–
